Paper PMC4684214, “Timberol® Inhibits TAAR5-Mediated Responses to Trimethylamine and Influences the Olfactory Threshold in Humans” (PLoS ONE, 2015)

Biological target: T1, hOR51E1 (Homo sapiens, UniProt Q8TCB6)
T1 construct: gene OR51E1; recombinant receptor plasmid transfected in HANA3A cells; with G-alpha-olf, RTP1S and M3 muscarinic receptor
T1 sequence (Q8TCB6 1-318): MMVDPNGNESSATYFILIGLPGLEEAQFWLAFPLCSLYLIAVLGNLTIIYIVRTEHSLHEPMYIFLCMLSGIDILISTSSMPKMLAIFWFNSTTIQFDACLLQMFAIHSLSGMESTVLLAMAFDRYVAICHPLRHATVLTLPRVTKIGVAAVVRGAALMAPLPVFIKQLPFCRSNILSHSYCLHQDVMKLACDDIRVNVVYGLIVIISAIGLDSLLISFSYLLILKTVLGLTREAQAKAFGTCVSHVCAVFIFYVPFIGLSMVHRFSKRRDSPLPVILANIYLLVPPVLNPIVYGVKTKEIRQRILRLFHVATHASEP
Experiment: Cre-luciferase reporter gene assay (cAMP)
Assay type: cell-based
Settings: agonist; M3 muscarinic receptor co-expressed; 37°C, 4 h
Source text: Cre-luciferase reporter gene assay (cAMP) on hOR51E1 | (B) nonanoic acid and hOR51E1

`CCCCCCCCC(=O)O` [nonanoic acid] was tested, and the EC50 was 103 ± 23.1 µM.
